Experimental data published in patent publication US11639353B2, “Cyclobutanes- and azetidine-containing mono and spirocyclic compounds as αV integrin inhibitors” (BRISTOL-MYERS SQUIBB COMPANY, priority 2016, dated 2023).

How the values were obtained:
Settings in all cases: alternatively SPA-based assay
human αVβ8 = human αVβ8 (Homo sapiens, UniProt P06756+P26012); assay: human αVβ8 HTRF binding assay
Description: (§1) All binding assays used the HTRF (homogeneous time resolved fluorescence) technology from Cisbio International, therefore all assays are described as HTRF binding assays. The assay results for the Examples are listed above together with the characterization data. The HTRF binding assays are established for the following integrins: human αVβ6, human αVβ1, human αVβ3, human αVβ5, and human αVβ8. All assays used the following assay buffer: 20 mM Tris, pH 7.4, 1 mM MgCl2, 1 mM MnCl2, 0.01% Tween 20, and 0.01% BSA. Alternatively, a SPA-based assay was used for evaluation of receptor binding.
(§2) The SPA-based assay was carried out according to the protocol and procedures similar to the ones described in the following reference with appropriate modifications to agents and ligands which are readily understood by one skilled in the art: Pachter J A, Zhang R, Mayer-Ezell R., “Scintillation proximity assay to measure binding of soluble fibronectin to antibody-captured αVβ1 integrin” Anal Biochem. 1995 Sep. 1; 230(1):101-7.

human αVβ6 = target: T1, human αVβ6 (Homo sapiens, UniProt P06756+P18564); assay: human αVβ6 HTRF binding assay
T1 construct: purchased R & D systems 3817-AV
T1 sequence (P06756 31-992 limits assumed): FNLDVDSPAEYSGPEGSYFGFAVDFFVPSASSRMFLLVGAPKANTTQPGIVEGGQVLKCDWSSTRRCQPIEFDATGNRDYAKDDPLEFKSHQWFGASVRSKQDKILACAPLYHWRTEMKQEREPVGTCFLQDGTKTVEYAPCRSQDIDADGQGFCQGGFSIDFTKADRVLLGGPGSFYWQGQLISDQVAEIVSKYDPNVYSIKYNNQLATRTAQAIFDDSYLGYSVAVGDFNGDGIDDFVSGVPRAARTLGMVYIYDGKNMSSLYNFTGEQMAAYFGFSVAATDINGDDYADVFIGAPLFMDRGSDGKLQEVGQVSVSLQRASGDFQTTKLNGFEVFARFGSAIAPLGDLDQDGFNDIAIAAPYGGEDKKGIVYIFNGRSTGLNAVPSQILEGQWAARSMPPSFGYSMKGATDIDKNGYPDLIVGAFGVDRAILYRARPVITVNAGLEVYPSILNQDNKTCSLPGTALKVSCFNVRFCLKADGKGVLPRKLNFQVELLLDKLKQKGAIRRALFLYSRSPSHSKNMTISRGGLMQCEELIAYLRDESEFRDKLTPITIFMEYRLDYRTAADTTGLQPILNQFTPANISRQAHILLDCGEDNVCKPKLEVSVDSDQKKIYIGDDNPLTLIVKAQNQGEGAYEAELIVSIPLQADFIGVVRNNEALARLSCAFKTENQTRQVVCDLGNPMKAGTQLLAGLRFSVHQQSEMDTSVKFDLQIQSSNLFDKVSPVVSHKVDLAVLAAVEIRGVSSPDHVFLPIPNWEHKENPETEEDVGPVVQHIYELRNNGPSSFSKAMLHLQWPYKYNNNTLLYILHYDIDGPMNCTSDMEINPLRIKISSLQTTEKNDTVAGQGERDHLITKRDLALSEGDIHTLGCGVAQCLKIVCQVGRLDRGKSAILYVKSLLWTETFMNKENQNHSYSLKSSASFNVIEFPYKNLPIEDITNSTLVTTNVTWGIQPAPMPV
T1 sequence (P18564 22-707 limits assumed): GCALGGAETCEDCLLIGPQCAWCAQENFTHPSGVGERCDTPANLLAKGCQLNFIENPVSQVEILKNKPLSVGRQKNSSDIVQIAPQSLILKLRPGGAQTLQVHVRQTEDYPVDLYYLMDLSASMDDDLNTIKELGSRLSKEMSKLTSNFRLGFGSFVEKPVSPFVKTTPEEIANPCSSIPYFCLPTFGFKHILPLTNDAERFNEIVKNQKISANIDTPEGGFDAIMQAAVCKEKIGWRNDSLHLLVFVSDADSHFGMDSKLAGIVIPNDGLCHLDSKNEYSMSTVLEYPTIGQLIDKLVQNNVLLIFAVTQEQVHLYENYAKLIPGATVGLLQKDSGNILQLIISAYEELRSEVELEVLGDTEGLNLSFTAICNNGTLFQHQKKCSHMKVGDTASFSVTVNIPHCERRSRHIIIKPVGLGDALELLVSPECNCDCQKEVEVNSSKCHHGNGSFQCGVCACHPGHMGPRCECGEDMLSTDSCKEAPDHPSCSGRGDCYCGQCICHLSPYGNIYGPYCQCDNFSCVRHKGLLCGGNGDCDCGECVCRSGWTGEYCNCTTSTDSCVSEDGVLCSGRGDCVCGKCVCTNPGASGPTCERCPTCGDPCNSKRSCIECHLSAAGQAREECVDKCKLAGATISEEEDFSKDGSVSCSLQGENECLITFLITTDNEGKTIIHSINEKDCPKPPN
Summary of the method: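 Biotinylated recombinant human αVβ6 (1.25 nM final) incubated with FITC-fibronectin (5 nM final) 1 h at RT, then streptavidin-terbium (0.625 nM final) added and left overnight at RT in the dark before HTRF reading. Buffer: 20 mM Tris pH 7.4, 1 mM MgCl2, 1 mM MnCl2, 0.01% Tween 20, 0.01% BSA.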

human αVβ5 = human αVβ5 (Homo sapiens, UniProt P06756+P18084); assay: human αVβ5 HTRF binding assay
human αVβ5, sequence (P06756 31-992 limits assumed): as the sequence (P06756 31-992 limits assumed) above
human αVβ5, sequence (P18084 24-719 limits assumed): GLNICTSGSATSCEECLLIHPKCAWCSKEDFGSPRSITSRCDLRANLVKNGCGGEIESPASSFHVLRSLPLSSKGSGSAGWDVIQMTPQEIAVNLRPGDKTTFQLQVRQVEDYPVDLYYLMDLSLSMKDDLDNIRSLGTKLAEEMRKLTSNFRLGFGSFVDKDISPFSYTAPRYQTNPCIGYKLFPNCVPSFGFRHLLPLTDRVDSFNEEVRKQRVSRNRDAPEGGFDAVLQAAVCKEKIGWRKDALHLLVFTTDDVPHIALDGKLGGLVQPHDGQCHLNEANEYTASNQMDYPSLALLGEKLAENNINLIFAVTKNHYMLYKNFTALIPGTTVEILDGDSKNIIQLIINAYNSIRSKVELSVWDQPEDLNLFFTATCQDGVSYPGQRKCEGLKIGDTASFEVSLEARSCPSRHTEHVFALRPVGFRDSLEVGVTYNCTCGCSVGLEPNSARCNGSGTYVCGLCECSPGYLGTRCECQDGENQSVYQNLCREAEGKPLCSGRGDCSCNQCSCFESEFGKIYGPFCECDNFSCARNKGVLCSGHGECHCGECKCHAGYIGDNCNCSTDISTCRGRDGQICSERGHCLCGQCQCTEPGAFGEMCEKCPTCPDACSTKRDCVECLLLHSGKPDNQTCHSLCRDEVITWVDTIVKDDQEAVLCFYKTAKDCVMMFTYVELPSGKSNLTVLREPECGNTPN
Description: as §1, §2

human αVβ1 = human αVβ1 (Homo sapiens, UniProt P05556+P06756); assay: human αVβ1 HTRF binding assay
human αVβ1, sequence (P06756 31-992 limits assumed): as the sequence (P06756 31-992 limits assumed) above
human αVβ1, sequence (P05556 21-728 limits assumed): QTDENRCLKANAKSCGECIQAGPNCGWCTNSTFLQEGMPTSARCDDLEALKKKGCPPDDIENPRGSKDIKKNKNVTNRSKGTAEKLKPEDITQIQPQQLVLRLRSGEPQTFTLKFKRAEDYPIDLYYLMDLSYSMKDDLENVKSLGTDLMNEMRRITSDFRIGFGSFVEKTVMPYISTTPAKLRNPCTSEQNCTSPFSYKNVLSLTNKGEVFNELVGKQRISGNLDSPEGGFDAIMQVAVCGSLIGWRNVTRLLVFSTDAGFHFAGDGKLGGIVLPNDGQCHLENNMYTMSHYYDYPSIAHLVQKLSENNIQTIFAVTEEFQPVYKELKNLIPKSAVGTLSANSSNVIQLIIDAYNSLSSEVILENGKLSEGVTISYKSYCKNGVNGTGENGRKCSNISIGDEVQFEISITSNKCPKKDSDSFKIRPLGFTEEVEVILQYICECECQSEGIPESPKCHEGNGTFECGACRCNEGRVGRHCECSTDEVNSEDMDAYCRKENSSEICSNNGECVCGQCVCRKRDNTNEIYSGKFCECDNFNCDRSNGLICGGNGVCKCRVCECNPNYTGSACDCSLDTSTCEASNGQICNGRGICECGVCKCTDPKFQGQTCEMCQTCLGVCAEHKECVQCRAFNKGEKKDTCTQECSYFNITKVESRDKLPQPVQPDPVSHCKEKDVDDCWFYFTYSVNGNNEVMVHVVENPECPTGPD
Description: as §1, §2

human αVβ3 = human αVβ3 (Homo sapiens, UniProt P05106+P06756); assay: human αVβ3 HTRF binding assay
human αVβ3, sequence (P06756 31-992 limits assumed): as the sequence (P06756 31-992 limits assumed) above
human αVβ3, sequence (P05106 27-718 limits assumed): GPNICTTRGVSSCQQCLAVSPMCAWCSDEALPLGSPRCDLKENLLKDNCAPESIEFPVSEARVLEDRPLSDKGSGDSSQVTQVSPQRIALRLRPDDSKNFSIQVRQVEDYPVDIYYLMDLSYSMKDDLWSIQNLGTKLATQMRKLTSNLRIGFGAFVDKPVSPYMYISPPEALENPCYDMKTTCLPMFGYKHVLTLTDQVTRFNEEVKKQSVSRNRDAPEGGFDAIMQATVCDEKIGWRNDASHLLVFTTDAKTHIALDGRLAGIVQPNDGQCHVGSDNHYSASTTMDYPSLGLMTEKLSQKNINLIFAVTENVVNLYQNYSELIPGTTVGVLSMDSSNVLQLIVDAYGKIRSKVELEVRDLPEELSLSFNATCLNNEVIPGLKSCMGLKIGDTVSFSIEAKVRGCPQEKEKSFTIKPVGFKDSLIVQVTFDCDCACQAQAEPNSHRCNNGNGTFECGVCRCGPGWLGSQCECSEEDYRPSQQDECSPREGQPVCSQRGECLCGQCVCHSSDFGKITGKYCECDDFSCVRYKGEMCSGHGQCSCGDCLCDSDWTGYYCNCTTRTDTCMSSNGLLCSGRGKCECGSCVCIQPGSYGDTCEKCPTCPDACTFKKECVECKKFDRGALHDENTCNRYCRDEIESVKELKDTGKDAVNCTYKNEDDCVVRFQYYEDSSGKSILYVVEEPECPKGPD
Description: as §1, §2

human αVβ8, sequence (P06756 31-992 limits assumed): as the sequence (P06756 31-992 limits assumed) above
human αVβ8, sequence (P26012 43-684 limits assumed): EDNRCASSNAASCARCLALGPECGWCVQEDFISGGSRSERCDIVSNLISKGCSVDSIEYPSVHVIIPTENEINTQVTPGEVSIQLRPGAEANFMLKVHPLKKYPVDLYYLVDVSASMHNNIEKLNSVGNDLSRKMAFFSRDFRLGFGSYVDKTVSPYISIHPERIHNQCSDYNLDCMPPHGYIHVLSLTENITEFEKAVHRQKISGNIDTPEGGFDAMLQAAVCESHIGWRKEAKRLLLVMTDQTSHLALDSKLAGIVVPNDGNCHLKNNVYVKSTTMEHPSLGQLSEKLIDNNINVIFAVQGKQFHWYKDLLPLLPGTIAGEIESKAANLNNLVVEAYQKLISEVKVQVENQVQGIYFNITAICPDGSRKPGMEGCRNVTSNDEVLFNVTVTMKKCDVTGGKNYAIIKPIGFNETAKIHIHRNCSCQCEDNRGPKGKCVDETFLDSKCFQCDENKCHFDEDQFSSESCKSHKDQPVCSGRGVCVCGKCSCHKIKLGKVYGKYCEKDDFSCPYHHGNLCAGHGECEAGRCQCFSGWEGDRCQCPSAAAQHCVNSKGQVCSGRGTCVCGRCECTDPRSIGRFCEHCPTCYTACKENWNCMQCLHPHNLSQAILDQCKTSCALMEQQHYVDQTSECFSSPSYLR

Compound	IC50 (human αVβ8)	IC50 (human αVβ6)	IC50 (human αVβ5)	IC50 (human αVβ1)	IC50 (human αVβ3)
COc1ccc([C@H](CC(=O)O)NC(=O)N2CC(CCc3ccc4c(n3)NCCC4)C2)cn1 [Example 6, (S)-3-(6-Methoxypyridin-3-yl)-3-(3-(2-(5,6,7,8-tetrahydro-1,8-naphthyridin-2-yl)ethyl)azetidine-1-carboxamido)propanoic acid]	430 nM	2.8 nM	7.7 nM	510 nM	6.3 nM
COc1ccc([C@H](CC(=O)O)N2CC(CCCCc3ccc4c(n3)NCCC4)C2=O)cn1 (stereo partly drawn) [Example 9, (3S)-3-(6-Methoxypyridin-3-yl)-3-(2-oxo-3-(4-(5,6,7,8-tetrahydro-1,8-naphthyridin-2-yl)butyl)azetidin-1-yl)propanoic acid]	630 nM	1.9 nM	1.2 nM	400 nM	1.8 nM
Cc1cc(C)c(S(=O)(=O)N[C@@H](CNC(=O)C2(F)CN(CCc3ccc4c(n3)NCCC4)C2)C(=O)O)c(C)c1 [Example 13, (S)-3-(3-Fluoro-1-(2-(5,6,7,8-tetrahydro-1,8-naphthyridin-2-yl)ethyl)azetidine-3-carboxamido)-2-(2,4,6-trimethylphenylsulfonamido)propanoic acid]	30 nM	0.6 nM	2 nM	84 nM	4.1 nM
Cc1ncc([C@H](CC(=O)O)N2CC(CCCCc3ccc4c(n3)NCCC4)C2)cn1 [Example 26, (S)-3-(2-Methylpyrimidin-5-yl)-3-(3-(4-(5,6,7,8-tetrahydro-1,8-naphthyridin-2-yl)butyl)azetidin-1-yl)propanoic acid]		1.11 nM	2 nM	8630 nM	1.76 nM
COc1ccc([C@H](CC(=O)O)N2CC(CCCCc3ccc4c(n3)NCCC4)C2)cc1F [Example 27, (S)-3-(3-Fluoro-4-methoxyphenyl)-3-(3-(4-(5,6,7,8-tetrahydro-1,8-naphthyridin-2-yl)butyl)azetidin-1-yl)propanoic acid]	11 nM	0.58 nM			
Cc1cc(C)c(S(=O)(=O)N[C@@H](CNC(=O)C2CN(CCc3ccc4c(n3)NCCC4)C2)C(=O)O)c(C)c1 [Example 36]	9.4 nM	0.76 nM	2 nM		3.8 nM
O=C(N[C@@H](CNC(=O)C1(F)CN(CCc2ccc3c(n2)NCCC3)C1)C(=O)O)OCc1ccccc1 [Example 45]	89 nM	0.5 nM	0.3 nM	28 nM	3.07 nM
Cc1cc(C)c(S(=O)(=O)N[C@@H](CNC(=O)[C@H]2C[C@@H](CCc3ccc4c(n3)NCCC4)C2)C(=O)O)c(C)c1 [Example 51]	15 nM	0.33 nM	0.44 nM		2.1 nM
Cc1cc(C)c(S(=O)(=O)N[C@@H](CNC(=O)[C@H]2C[C@H](CCc3ccc4c(n3)NCCC4)C2)C(=O)O)c(C)c1 [Example 52]	15 nM	0.37 nM	0.2 nM	3.1 nM	2.08 nM
COc1ccc([C@H](CC(=O)O)NC(=O)[C@H]2C[C@H](CCc3ccc4c(n3)NCCC4)C2)cc1F [Example 53]	130 nM	0.52 nM	1.8 nM	38 nM	2.4 nM
COc1ccc([C@H](CC(=O)O)NC(=O)C2CC(CCc3ccc4c(n3)NCCC4)C2)cn1 (stereo partly drawn) [Example 56]	55 nM	0.57 nM	0.58 nM	67 nM	2 nM
O=C(N[C@@H](CNC(=O)C1CC(CCc2ccc3c(n2)NCCC3)C1)C(=O)O)OCc1ccccc1 (stereo partly drawn) [Example 58]	62 nM	0.44 nM	0.15 nM	7.6 nM	2.4 nM
COc1ccc([C@H](CC(=O)O)NC(=O)[C@H]2C[C@H](CCc3ccc4c(n3)NCCC4)C2)cn1 [Example 59]	270 nM	0.64 nM	0.47 nM	87.5 nM	2.7 nM
COc1ccc([C@H](CC(=O)O)NC(=O)N2CC(CCc3ccc4c(n3)NCCC4)C2)cc1F [Example 63]	410 nM	2.22 nM	9.4 nM	184 nM	2.8 nM
COc1ncc([C@H](CC(=O)O)N2CC(CCCCc3ccc4c(n3)NCCC4)C2=O)cn1 (stereo partly drawn) [Example 69]	2000 nM	3.27 nM	0.32 nM	1230 nM	1.79 nM
O=C(N[C@@H](CNC(=O)[C@H]1C[C@@H](CCc2ccc3c(n2)NCCC3)C1)C(=O)O)OCc1ccccc1 [Example 77]	82 nM	0.54 nM	0.01 nM	48 nM	2 nM

Compound	IC50 (human αVβ8)	IC50 (human αVβ6)	IC50 (human αVβ5)	IC50 (human αVβ1)	IC50 (human αVβ3)
O=C(N[C@@H](CNC(=O)[C@H]1C[C@H](CCc2ccc3c(n2)NCCC3)C1)C(=O)O)OCc1ccccc1 [Example 78]	38 nM	0.97 nM	0.42 nM	37 nM	4.2 nM
O=C(O)C[C@H](NC(=O)C1(F)CN(CCc2ccc3c(n2)NCCC3)C1)c1cnc2ccccc2c1 [Example 80]	49 nM	0.62 nM	2.1 nM	900 nM	2.3 nM
COc1ncc([C@H](CC(=O)O)NC(=O)[C@H]2C[C@H](CCc3ccc4c(n3)NCCC4)C2)cn1 [Example 82]	470 nM	0.78 nM	15 nM	200 nM	4.2 nM
COc1ncc([C@H](CC(=O)O)NC(=O)[C@H]2C[C@@H](CCc3ccc4c(n3)NCCC4)C2)cn1 [Example 83]	1400 nM	2 nM	150 nM	4000 nM	3.2 nM
O=C(O)C[C@H](NC(=O)[C@H]1C[C@H](CCc2ccc3c(n2)NCCC3)C1)c1cnc2ccccc2c1 [Example 84]	84 nM	0.62 nM	41 nM	60 nM	4.7 nM
O=C(O)C[C@H](NC(=O)[C@H]1C[C@@H](CCc2ccc3c(n2)NCCC3)C1)c1cnc2ccccc2c1 [Example 85]	140 nM	0.68 nM		330 nM	2.1 nM
Cc1ncc([C@H](CC(=O)O)NC(=O)[C@H]2C[C@H](CCc3ccc4c(n3)NCCC4)C2)cn1 [Example 86]	790 nM	1.5 nM			2.7 nM
Cc1ncc([C@H](CC(=O)O)NC(=O)[C@H]2C[C@@H](CCc3ccc4c(n3)NCCC4)C2)cn1 [Example 87]	940 nM	1.1 nM	8.8 nM	2200 nM	3.8 nM
O=C(O)C[C@H](NC(=O)[C@H]1C[C@H](CCc2ccc3c(n2)NCCC3)C1)c1ccc2c(c1)OCC2 [Example 88]	190 nM	0.87 nM	1 nM	150 nM	2.7 nM
O=C(O)C[C@H](NC(=O)[C@H]1C[C@@H](CCc2ccc3c(n2)NCCC3)C1)c1ccc2c(c1)OCC2 [Example 89]	250 nM	2.2 nM			1.5 nM
O=C(O)C[C@H](NC(=O)[C@H]1C[C@H](CCc2ccc3c(n2)NCCC3)C1)c1cncnc1 [Example 90]	1100 nM	1.7 nM		520 nM	120 nM
O=C(O)C[C@H](NC(=O)N1CC(CCc2ccc3c(n2)NCCC3)C1)c1cnc2ccccc2c1 [Example 96]	120 nM	1.9 nM	1.3 nM	247 nM	2.3 nM
O=C(O)C[C@H](NC(=O)N1CC(CCc2ccc3c(n2)NCCC3)C1)c1ccc2c(c1)OCC2 [Example 97]	280 nM	0.64 nM	1 nM	710 nM	4.4 nM
O=C(O)C[C@@H](c1ccc2c(c1)OCC2)N1CC(CCCCc2ccc3c(n2)NCCC3)C1=O (stereo partly drawn) [Example 104]	110 nM	2.23 nM		329 nM	2.4 nM
O=C(O)C[C@@H](c1cnc2ccccc2c1)N1CC(CCCCc2ccc3c(n2)NCCC3)C1=O (stereo partly drawn) [Example 106]	270 nM	2 nM	5.46 nM	220 nM	2.5 nM
O=C(O)C[C@@H](c1ccc2c(c1)CCO2)N1CC(CCCCc2ccc3c(n2)NCCC3)C1=O (stereo partly drawn) [Example 110]	48 nM	1.4 nM	34 nM	210 nM	7.1 nM
